In the supplement of paper PMC4858399:
Structures can show the parent of a compound that is named as a salt.

Key:
Details in all cases: exposure time 48 h
[1] = system: Caenorhabditis elegans N2; experiment: lowest effective concentration for larval growth inhibition (size below effect threshold); higher = less potent
Procedure, shortened: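 Log-transformed well means of per-worm extinction, read as size on a Biosort, came from 50 C. elegans N2 L1 larvae per 96-well grown 48 h at 20°C in K-medium with killed bacteria, 1% DMSO and 0.5 to 200 µM chemical. The lowest effective concentration is the first dose at which the plate-adjusted mean size is below the threshold and stays below it at every higher dose. The threshold is 5.665.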

[2] = system: Caenorhabditis elegans N2; experiment: mean nematode size ln(EXT) after 48 h, plate-adjusted (DMSO control set to 6) (ln(EXT), control-adjusted); higher = larger nematodes / less growth inhibition
Procedure, shortened: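 Synchronised C. elegans N2 L1 larvae (50 per well, 4–6 wells per treatment) were grown for 48 h at 20°C in K-medium with killed OP50, 1% DMSO and 0.5–200 µM chemical. The Biosort measured each worm's extinction, and debris was removed by a growth model. Values were natural-logged and averaged per well. Mean size was then plate-adjusted by subtracting the vehicle control mean and adding 6.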

[3] = system: Caenorhabditis elegans N2; experiment: AC50 for larval growth inhibition (Hill fit); higher = less potent
Procedure, shortened: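 Worms were synchronised C. elegans N2 L1 larvae, 50 per well of a 96-well plate, kept 48 h at 20°C in K-medium with killed OP50, 1% DMSO and 0.5–200 µM chemical. Size was taken as COPAS Biosort extinction, log-transformed and averaged per well, using only wells with at least 10 worms. AC50 was estimated by a constrained Hill fit with weighted genetic-algorithm regression; values outside the range are censored.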

SMILES	lowest effective concentration [1] [µM]	mean nematode size ln(EXT) (ln) ([2]; 0.5 µM)	mean nematode size ln(EXT) (ln) ([2]; 1 µM)	mean nematode size ln(EXT) (ln) ([2]; 5 µM)	mean nematode size ln(EXT) (ln) ([2]; 10 µM)	mean nematode size ln(EXT) (ln) ([2]; 50 µM)	mean nematode size ln(EXT) (ln) ([2]; 100 µM)	mean nematode size ln(EXT) (ln) ([2]; 200 µM)	AC50 for larval growth inhibition [3] [µM]
CCCCOC(=O)C(C)Oc1ccc(Oc2ccc(C(F)(F)F)cn2)cc1 (configuration not stated) [Fluazifop-butyl]	100	6.21	6.17	6.11	6.18	5.87	5.5	4.66	191
COS(=O)(=O)OC [Dimethyl sulfate]	100	5.83	5.97	6.03	5.92	5.98	5.28	5.61	61.5
COC(=O)C(C)Oc1ccc(Oc2ccc(Cl)cc2Cl)cc1 (configuration not stated) [Diclofop-methyl]	50	6.06	6.74	6	5.92	5.56	5.39	4.62	> 200
O=C(N[C@@H](Cc1ccccc1)[C@@H](O)C(=O)N1C[C@@H](O)[C@@H](O)C1)c1cc2cc(Cl)ccc2[nH]1 [Ingliforib]	100	5.94	5.79	5.75	5.85	5.79	5.46	5.44	> 200
CS(=O)(=O)NC(=O)c1cc(Oc2ccc(C(F)(F)F)cc2Cl)ccc1[N+](=O)[O-] [Fomesafen]	200	5.93	5.95	5.95	5.95	5.89	6	5.52	180
O=C(NO)C1(NS(=O)(=O)c2ccc(Oc3ccc(F)cc3)cc2)CCOCC1	200	5.72	6.03	5.84	5.9	5.89	5.71	5.12	> 200
CC(C)[C@H](C(=O)O[C@H](C#N)c1cccc(Oc2ccccc2)c1)c1ccc(Cl)cc1 [Esfenvalerate]	200	5.76	5.83	5.9	5.73	5.74	5.76	5.64	> 200
C=C(C)[C@H]1Cc2c(ccc3c2O[C@@H]2COc4cc(OC)c(OC)cc4[C@@H]2C3=O)O1 [Rotenone]	200	5.16	6.51	6.12	6.26	6.39	6.45	4.07	181
CCCCC(O)(Cn1cncn1)c1ccc(Cl)cc1Cl (configuration not stated) [Hexaconazole]	100	5.86	5.78	5.71	5.99	5.81	4.65	4.09	84.2
CN1CCC[C@H]1c1cccnc1 [Nicotine]	100	5.88	5.83	5.83	5.87	5.87	5.38	5.56	> 200
OC[C@@H](O)[C@@H](O)[C@H](O)[C@H](O)CO [D-Mannitol]	200	5.94	5.89	5.93	5.96	5.93	5.94	5.42	> 200
CC(C)CCCCCCOC(=O)C1CCCCC1C(=O)OCCCCCCC(C)C (configuration not stated)	200	5.92	5.97	5.87	5.9	5.87	5.84	5.66	> 200
CC(C)(C)c1cccc(C(C)(C)C)c1O [2,6-Di-tert-butylphenol]	200	6.07	5.99	6.03	6.07	5.91	5.88	5.19	> 200
OC(Cn1cncn1)(Cn1cncn1)c1ccc(F)cc1F [Fluconazole]	200	6.08	6.04	6.06	6.09	6.01	5.99	5.56	> 200
c1ccc2c(c1)-c1cccc3c1c-2cc1ccccc13 [Benzo[b]fluoranthene]	≤ 0.5	5.22	4.39	4.09	4.15	4.17	5.53	4.32	< 0.5
CCCCNC(=O)n1c(NC(=O)OC)nc2ccccc21 [Benomyl]	10	6.03	6.07	5.68	5.58	5.36	5.4	4.35	> 200
O=C(O)c1cccc(C[C@@H]2COc3ccc(OCc4nc5cc(F)ccc5s4)cc3[C@@H]2O)c1	200	5.95	5.88	5.79	5.88	5.87	5.92	5.09	> 200
CC(C)OC(=O)Nc1cccc(Cl)c1 [Chlorpropham]	100	5.75	5.77	5.9	5.95	5.82	4.79	4.32	60.7
C=CCCCCCCCCC(=O)O [10-Undecenoic acid]	200	5.77	6	5.9	5.88	5.76	5.8	5.62	> 200
O=[N+]([O-])c1ccc(Oc2ccc(Cl)cc2Cl)cc1 [2,4-dichloro-1-(4-nitrophenoxy)benzene]	5	5.88	5.74	5.03	3.93	3.8	3.76	4.04	5.16
Oc1cc(Cl)ccc1Oc1ccc(Cl)cc1Cl [Triclosan]	10	5.89	5.86	5.85	5.64	4.79	4.27	4	49.9
CSC(=O)c1c(C(F)F)nc(C(F)(F)F)c(C(=O)SC)c1CC(C)C [Dithiopyr]	10	6.12	6.03	6.04	5.65	4.72	4.61	3.44	66.4

SMILES	lowest effective concentration [1] [µM]	mean nematode size ln(EXT) (ln) ([2]; 0.5 µM)	mean nematode size ln(EXT) (ln) ([2]; 1 µM)	mean nematode size ln(EXT) (ln) ([2]; 5 µM)	mean nematode size ln(EXT) (ln) ([2]; 10 µM)	mean nematode size ln(EXT) (ln) ([2]; 50 µM)	mean nematode size ln(EXT) (ln) ([2]; 100 µM)	mean nematode size ln(EXT) (ln) ([2]; 200 µM)	AC50 for larval growth inhibition [3] [µM]
CCCCOC(=O)[C@@H](C)Oc1ccc(Oc2ccc(C(F)(F)F)cn2)cc1 [Fluazifop-P-butyl]	100	6.18	6.51	6.31	6.37	6.22	5.52	4.99	98.7
O=P(Oc1ccccc1)(Oc1ccccc1)Oc1ccccc1 [Triphenyl phosphate]	1	5.84	5.63	5.25	4.99	4.17	3.78	3.66	20.5
Clc1cc(Cl)c2c(c1)N=C1CCCCCN1C2	100	5.91	5.88	5.72	5.8	5.67	5.54	4.82	> 200
Cc1[nH]c(=O)n(C(C)(C)C)c(=O)c1Cl [Terbacil]	200	5.34	5.77	5.2	5.76	5.1	5.87	5.23	> 200
CCOC(=O)[C@]1(c2ccccc2)Oc2ccccc2[C@@H]1N	10	5.84	5.73	5.71	5.27	4.94	5.43	4.03	56.5
CC[C@H](C)C1O[C@]2(C=C[C@@H]1C)C[C@@H]1C[C@@H](C/C=C(\C)[C@@H](O[C@H]3C[C@H](OC)[C@@H](O[C@H]4C[C@H](OC)[C@H](NC)[C@H](C)O4)[C@H](C)O3)[C@@H](C)/C=C/C=C3\CO[C@@H]4[C@H](O)C(C)=C[C@@H](C(=O)O1)[C@]34O)O2 (some centres not stated) [Emamectin benzoate]	≤ 0.5	3.52	3.7	3.74	3.6	3.65	3.54	4.24	< 0.5
CCOC(=O)C(C)OC(=O)c1cc(Oc2ccc(C(F)(F)F)cc2Cl)ccc1[N+](=O)[O-] (configuration not stated) [Lactofen]	50	5.89	5.94	5.8	5.86	5.24	5.25	4.89	138
Cc1cccc(N)c1N [3-Methylbenzene-1,2-diamine]	200	6.01	5.93	5.87	5.79	5.78	5.79	5.05	> 200
Clc1ccc(C(c2ccc(Cl)cc2)C(Cl)(Cl)Cl)cc1 [p,p'-DDT]	5	6	5.91	4.31	3.75	3.44	3.36	3.29	3.83
CCOP(=O)(OCC)Oc1nc(Cl)c(Cl)cc1Cl [Chlorpyrifos oxon]	≤ 0.5	4.98	4.42	4.26	4.05	3.47	3.24	3.15	1.24
CO[C@H]1/C=C/O[C@@]2(C)Oc3c(C)c(O)c4c(O)c(c(/C=N/N5CCN(C)CC5)c(O)c4c3C2=O)NC(=O)/C(C)=C\C=C\[C@H](C)[C@H](O)[C@@H](C)[C@@H](O)[C@@H](C)[C@H](OC(C)=O)[C@@H]1C [Rifampicin]	200	5.96	5.92	5.94	5.98	5.84	5.84	5.56	> 200
CC1(C(=O)Nc2ccc(O)c(Cl)c2Cl)CCCCC1 [Fenhexamid]	200	5.86	5.87	5.88	5.96	6	5.86	4.71	112
C[C@]12C=CC(=O)C=C1CC[C@@H]1[C@@H]2C(=O)C[C@@]2(C)[C@H]1CC[C@]2(O)C(=O)CO [Prednisone]	100	6.09	5.82	5.85	5.87	5.86	5.47	5.62	52.4
CCCN(CCC)c1c([N+](=O)[O-])cc(C(F)(F)F)c(N)c1[N+](=O)[O-] [Prodiamine]	200	6.07	6.18	6.02	5.75	5.99	5.92	5.1	> 200
O=C(Nc1ccc2[nH]ccc2c1)c1cc2cc(F)ccc2n1Cc1cccc(F)c1	1	5.77	5.57	5.5	3.83	3.84	3.62	3.51	6.54
CCOc1cc(C(C)(C)C)ccc1C1COC(c2c(F)cccc2F)=N1 (configuration not stated) [Etoxazole]	1	5.74	5.16	4.48	4.32	4.37	3.91	3.44	2.3
CCCCCCCCOC(=O)c1cc(O)c(O)c(O)c1 [Octyl gallate]	50	5.79	5.87	5.84	5.88	4.63	4.47	3.77	55.1
CNCc1cc(F)ccc1Oc1ccc(Cl)c(Cl)c1	10	5.86	5.78	5.86	5.24	4.33	4.11	3.59	39.1
Cc1cc(CCN2CCN(c3nsc4ccccc34)CC2)cc2c1NC(=O)CC2(C)C	5	5.77	5.72	5.61	5.4	4.49	4.01	3.55	41.3
C=CCOC(=O)c1ccccc1C(=O)OCC=C [Diallyl phthalate]	200	5.88	5.92	5.94	5.96	5.88	5.84	5.65	> 200
CCSC(=O)N1CCCCCC1 [Molinate]	≤ 0.5	5.42	5.42	5.29	5.63	5.44	5.62	5.21	> 200
